Experimental data published in US20250221409A1, “COMPOSITION FOR POTENTIATING EFFECTS OF USEFUL SUBSTANCE” (KANEKA CORPORATION, priority 2022, published 2025).

System: soybean leaves
Test: Promotion of herbicide (PQ) effects: SPAD values of soybean leaves after spraying test solutions
Assay type: in vivo, soybean (variety Fukuyutaka)
Settings: Experimental Example 2-1 (FIG. 4); PQ 0.001 mass %, surfactin 0.001 mass %, lecithin 0.0005 mass %; 3 days after application
Method: Culture soil was filled into 9-cm vinyl pots, and soybean seeds (the variety: Fukuyutaka) were seeded at 3 grains/pot. Cultivation was performed in a glass greenhouse, and, after germination, strains were thinned to retain a strain in a pot. The test solutions shown in Table 4 were sprayed on leaves 3 seeks after seeding. The test solutions were prepared by dissolving the components in water. The SPAD (soil and plant analyzer development) values of the leaves were measured using a chlorophyll meter (product name: SPAD-502Plus, Konica Minolta, Inc.) 3 days after application of the test solutions. The SPAD values are used as the indicators showing the chlorophyll amount of plants.
Culture soil was filled into 9-cm vinyl pots, and soybean seeds (the variety: Fukuyutaka) were seeded at 3 grains/pot. Cultivation was performed in a glass greenhouse, and, after germination, strains were thinned to retain a strain in a pot. The test solutions shown in Table 5 were sprayed on leaves 3 seeks after seeding. The test solutions were prepared by dissolving the components in water. When lecithin was to be added, at the outset, lecithin was dissolved in water, and a biosurfactant was added to reach a given concentration. The SPAD values of the leaves were measured using a chlorophyll meter 3 days after application of the test solutions.

C[n+]1ccc(-c2cc[n+](C)cc2)cc1 [PQ, paraquat dichloride]
SPAD values of the leaves: not substantially different from the SPAD values of the control
